Here are results for 2 substances from patent US9029337B2, “Modulation of factor 7 expression” (Isis Pharmaceuticals, Inc., priority 2007, dated 2015).

Strand notation (5' to 3'): a small letter for the sugar, then the base; units joined by * are phosphorothioate-linked, units joined directly phosphodiester-linked; [ ] holds rarer units or linkages, { } end groups; capitals alone tell only the bases. e = 2'-O-(2-methoxyethyl) (MOE); [5mC] = 5-methylcytosine; d = 2'-deoxy (DNA)

In data set [1] the test system is human Factor 7 mRNA. Briefly: Antisense inhibition of human Factor 7 with short (14-mer) oligonucleotides in HepB3 cells, electroporation 1,000 nM. Type of data set: cell-based. To be noted: electroporation, 1,000 nM antisense oligonucleotide, approximately 24 hours, Factor 7 mRNA relative to untreated control cells. The method, boiled down: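 14-mer 2-10-2 MOE gapmers (full phosphorothioate, 5-methyl-C) electroporated at 1,000 nM into HepB3 cells at 20,000 cells/well. After ~24 h, Factor 7 mRNA by real-time RT-PCR, normalized to RiboGreen total RNA. Reported as % inhibition relative to untreated cells.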

Data set [2] relates to murine Factor 7 mRNA. Briefly: Liver Factor 7 mRNA in the FeCl3 induced venous thrombosis model. The format is in vivo, mouse. To be noted: for % inhibition of Factor 7 mRNA: liver; for % inhibition of Factor 7 mRNA, relative to PBS control: BALB/c mice liver, two days after last dose. The procedure:
Three groups of BALB/c mice were injected with 25 mg/kg, 37.5 mg/kg, or 50 mg/kg of ISIS 403102, administered subcutaneously twice a week for 3 weeks. Two control groups of BALB/c mice were treated with PBS, administered subcutaneously twice a week for 3 weeks. Thrombus formation was induced with FeCl3 in half of the mice while the rest of the mice were assayed for tail bleeding. Two days after receiving the last dose of ISIS 403102 or PBS, mice were anesthetized with 150 mg/kg ketamine mixed with 10 mg/kg xylazine administered by intraperitoneal injection. Thrombus formation was induced with FeCl3 in all groups of the VT mice except the first control group.
In mice undergoing FeCl3 treatment, thrombus formation was induced by applying a piece of filter paper (2×4 mm) pre-saturated with 10% FeCl3 solution directly on the vena cava. After 3 minutes of exposure, the filter paper was removed. Thirty minutes after the filter paper application, a fixed length of the vein containing the thrombus was dissected out for platelet analysis. Liver was collected for RNA analysis.
RNA was extracted from liver tissue for real-time RT-PCR analysis of Factor 7. Results are presented as percent inhibition of Factor 7, relative to PBS control.
ISIS 403102 and warfarin (Coumadin®) were evaluated in BALB/c mice. Four groups of BALB/c mice were treated with 5 mg/kg, 10 mg/kg, 20 mg/kg, or 40 mg/kg of ISIS 403102, administered subcutaneously twice a week for 3 weeks. Two days after receiving the last dose of ISIS 403102, mice were anesthetized with 150 mg/kg ketamine mixed with 10 mg/kg xylazine administered by intraperitoneal injection. A fifth group of BALB/c mice was treated with 3 mg/kg of warfarin, administered intraperioneally daily for 6 days. Four hours after the last dose of warfarin, mice were sacrificed. A control group of BALB/c mice were treated with PBS, administered subcutaneously twice a week for 3 weeks. Two days after the last dose of PBS, mice were anesthetized with 150 mg/kg ketamine mixed with 10 mg/kg xylazine administered by intraperitoneal injection. Thrombus formation was induced with FeCl3 in groups of mice except the first control group.

Data set [3] deals with extrinsic pathway of blood coagulation. Briefly: Prothrombin Time (PT) in platelet poor plasma of treated BALB/c mice. The format is in vivo, mouse. The method, then:
Prothrombin Time (PT) and Activated Partial Thromboplastin Time (aPTT) were measured using platelet poor plasma (PPP) from mice treated with ISIS 403102. PT and aPTT values provided in Table 20 are reported as International Normalized Ratio (INR) values. INR values for PT and aPTT were determined by dividing the PT or aPTT value for the experimental group by the PT or aPTT for the PBS treated group. This ratio was then raised to the power of the International Sensitivity Index (ISI) of the tissue factor used.
Prothrombin Time (PT) and Activated Partial Thromboplastin Time (aPTT) were measured using platelet poor plasma (PPP) from mice treated with ISIS 403102. PT and aPTT values provided in Table 22 are reported as International Normalized Ratio (INR) values. INR values for PT and aPTT were determined by dividing the PT or aPTT value for the experimental group (i.e. 50 mg/kg treatment with ISIS 403102) by the PT or aPTT for the PBS treated group. This ratio was then raised to the power of the International Sensitivity Index (ISI) of the tissue factor used.
Prothrombin Time (PT) and Activated Partial Thromboplastin Time (aPTT) were measured using platelet poor plasma (PPP) from mice treated with ISIS 403102. PT and aPTT values provided in Table 24 are reported as International Normalized Ratio (INR) values. INR values for PT and aPTT were determined by dividing the PT or aPTT value for the experimental group (i.e. 50 mg/kg treatment with ISIS 403102) by the PT or aPTT for the PBS treated group. This ratio was then raised to the power of the International Sensitivity Index (ISI) of the tissue factor used.

Regarding “407939 (antisense eT*eG*e[5mC]*eA*eG*d[5mC]*d[5mC]*d[5mC]*dG*dG*d[5mC]*dA*d[5mC]*d[5mC]*d[5mC]*eA*eG*e[5mC]*eG*eA) [compound 407939]”, the “% Inhibition” value in data set [1] is listed as 81%.
“CCATAGAACAGCTTCACAGG (sugars from the 5' end e5 d10 e5, backbone and methylation of C not given here) [ISIS 403102]”: the “% inhibition of Factor 7 mRNA” value is on record as 24% in data set [2] (Example 14, 25 mg/kg subcutaneously twice a week for 3 weeks); 74% in data set [2] (Example 14, 37.5 mg/kg subcutaneously twice a week for 3 weeks); 69% in data set [2] (Example 14, 50 mg/kg subcutaneously twice a week for 3 weeks). The “reduction of Factor 7 mRNA in comparison to the PBS control” value in data set [2] (Example 14, 25, 37.5, 50 mg/kg twice a week for 3 weeks) is “significant dose-dependent reduction of Factor 7 mRNA”; in data set [2] (Example 15, 5, 10, 20, 40 mg/kg subcutaneously twice a week for 3 weeks), “significant dose-dependent reduction of Factor 7 mRNA”. Further, the “% inhibition of Factor 7 mRNA, relative to PBS control” value came out at 59% in data set [2] (Example 15, 5 mg/kg s.c. twice a week for 3 weeks); 84% in data set [2] (Example 15, 10 mg/kg s.c. twice a week for 3 weeks); 95% in data set [2] (Example 15, 20 mg/kg s.c. twice a week for 3 weeks); 99% in data set [2] (Example 15, 40 mg/kg s.c. twice a week for 3 weeks). The “PT INR” value is on record as 1.09 in data set [3] (BALB/c mice, 5 mg/kg, relative to PBS treated group); 1.33 in data set [3] (BALB/c mice, 10 mg/kg, relative to PBS treated group); 2.33 in data set [3] (BALB/c mice, 25 mg/kg, relative to PBS treated group); 1.04 INR in data set [3] (BALB/c mice, 50 mg/kg, 1 dose, 1 day after last dose, relative to PBS group); 1.20 INR in data set [3] (BALB/c mice, 50 mg/kg, 1 dose, 3 days after last dose, relative to PBS group); 1.43 INR in data set [3] (BALB/c mice, 50 mg/kg, 2 doses, 3 days after last dose, relative to PBS group). The “PT INR” value stood at 2.13 INR in data set [3] (BALB/c mice, 50 mg/kg, 4 doses, 3 days after last dose, relative to PBS group); 1.64 INR in data set [3] (BALB/c mice, 50 mg/kg, 6 doses, 2 days after last dose, relative to PBS group); 2.08 INR in data set [3] (BALB/c mice, 50 mg/kg, 6 doses, 7 days after last dose, relative to PBS group); 1.37 INR in data set [3] (BALB/c mice, 50 mg/kg, 6 doses, 14 days after last dose, relative to PBS group); 0.96 INR in data set [3] (BALB/c mice, 50 mg/kg, 6 doses, 28 days after last dose, relative to PBS group); 1.00 INR in data set [3] (BALB/c mice, 50 mg/kg, 6 doses, 42 days after last dose, relative to PBS group). In addition, the “PT INR” value was determined as 0.99 INR in data set [3] (BALB/c mice, 50 mg/kg, 6 doses, 56 days after last dose, relative to PBS group); 4.37 in data set [3] (BALB/c mice, 50 mg/kg, relative to PBS treated group); 1.11 in data set [3] (BALB/c mice, single dose 50 mg/kg, day 1); 1.64 in data set [3] (BALB/c mice, single dose 50 mg/kg, day 2); 1.81 in data set [3] (BALB/c mice, single dose 50 mg/kg, day 3); 1.97 in data set [3] (BALB/c mice, single dose 50 mg/kg, day 4). Besides, the “PT INR” value is listed as 1.59 in data set [3] (BALB/c mice, single dose 50 mg/kg, day 6); 1.55 in data set [3] (BALB/c mice, single dose 50 mg/kg, day 8); 1.30 in data set [3] (BALB/c mice, single dose 50 mg/kg, day 12); 1.12 in data set [3] (BALB/c mice, single dose 50 mg/kg, day 24); 1.10 in data set [3] (BALB/c mice, single dose 50 mg/kg, day 56); 1.11 in data set [3] (single dose 50 mg/kg, day 1). The “PT INR” value is given as 1.97 in data set [3] (single dose 50 mg/kg, day 4) and 1.10 in data set [3] (single dose 50 mg/kg, day 56). In addition, the “PT compared to the control” value in data set [3] (Example 11, 5-50 mg/kg twice a week for 3 weeks) was “significantly prolonged”. For the same substance, the PT result in data set [3] (Example 13, 6 doses, from day 7 to day 56) is recorded as “decreased”.

As a reminder, the % Inhibition is the share of the control response that was lost under treatment. A higher % Inhibition goes with a strong effect.
